From doi:10.1101/318345v1, “Three enzymes and one substrate; regulation of flux through the glyoxylate shunt in the opportunistic pathogen, Pseudomonas aeruginosa” (biorxiv, 2018) come the findings set out here.

In one assay the target is T1, ICL (Pseudomonas aeruginosa, UniProt Q9I0K4).
T1 construct: gene PA2634; full length, 531 residues, 59 kDa; His6-MBP fusion from E. coli DH5alpha, tag cleaved with Factor Xa; tetramer
T1 sequence (Q9I0K4 1-531): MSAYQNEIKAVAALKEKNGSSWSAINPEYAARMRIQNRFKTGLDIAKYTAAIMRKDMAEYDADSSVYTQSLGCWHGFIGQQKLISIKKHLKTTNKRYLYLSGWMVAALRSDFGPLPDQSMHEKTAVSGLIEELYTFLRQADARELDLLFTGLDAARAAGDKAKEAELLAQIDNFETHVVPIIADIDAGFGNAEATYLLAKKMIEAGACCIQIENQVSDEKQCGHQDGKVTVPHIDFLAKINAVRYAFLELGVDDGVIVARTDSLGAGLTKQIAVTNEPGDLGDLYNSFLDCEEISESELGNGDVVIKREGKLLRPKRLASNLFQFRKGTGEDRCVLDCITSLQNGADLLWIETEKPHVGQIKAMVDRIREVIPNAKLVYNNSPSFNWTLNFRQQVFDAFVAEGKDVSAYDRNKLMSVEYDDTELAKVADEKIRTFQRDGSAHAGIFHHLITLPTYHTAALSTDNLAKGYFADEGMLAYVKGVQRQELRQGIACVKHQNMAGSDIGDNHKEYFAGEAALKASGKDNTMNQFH
Kind of assay: ICL activity, spectrophotometric. In kind it is biochemical. The following applies: for Ki': uncompetitive, inhibitor at 1 mM, 37 °C, substrate isocitrate. The source says: ICL activity, spectrophotometric on ICL

Assay [1] concerns the target T2, IDH (Pseudomonas aeruginosa, UniProt Q9I0L4).
T2 construct: full length, 82 kDa; His6-MBP fusion from E. coli DH5alpha, tag cleaved with Factor Xa
T2 sequence (Q9I0L4 1-741): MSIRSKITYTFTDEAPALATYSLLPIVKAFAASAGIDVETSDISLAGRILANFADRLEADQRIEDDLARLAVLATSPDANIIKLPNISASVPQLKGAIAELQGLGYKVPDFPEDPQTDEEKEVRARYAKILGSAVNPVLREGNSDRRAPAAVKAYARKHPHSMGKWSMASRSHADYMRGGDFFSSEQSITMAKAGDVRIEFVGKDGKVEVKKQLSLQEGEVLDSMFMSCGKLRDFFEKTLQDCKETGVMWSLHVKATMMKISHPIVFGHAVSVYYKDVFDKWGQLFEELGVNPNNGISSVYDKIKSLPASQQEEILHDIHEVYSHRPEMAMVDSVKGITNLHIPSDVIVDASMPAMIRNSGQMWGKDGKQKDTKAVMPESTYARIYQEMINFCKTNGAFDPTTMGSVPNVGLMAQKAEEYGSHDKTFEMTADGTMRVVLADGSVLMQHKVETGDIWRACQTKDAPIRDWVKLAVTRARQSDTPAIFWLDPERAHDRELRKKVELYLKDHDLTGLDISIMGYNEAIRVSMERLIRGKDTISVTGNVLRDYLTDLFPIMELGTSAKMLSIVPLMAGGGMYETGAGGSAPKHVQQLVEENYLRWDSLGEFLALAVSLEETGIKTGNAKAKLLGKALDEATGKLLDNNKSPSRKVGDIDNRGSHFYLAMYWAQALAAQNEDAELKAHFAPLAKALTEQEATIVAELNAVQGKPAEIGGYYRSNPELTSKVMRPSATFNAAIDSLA
The assay can be described thus: isocitrate dehydrogenase activity, NADPH at […] nm. Format: biochemical. The following applies: activator at 1 mM, V-type allosteric; 5 mM MgCl2, pH 7.5, 37 °C.

The target of a further assay is T3, ICD (Pseudomonas aeruginosa, UniProt Q9I0L5).
T3 construct: full length, 45 kDa; His6-MBP fusion from E. coli DH5alpha, tag cleaved with Factor Xa; dimer
T3 sequence (Q9I0L5 1-418): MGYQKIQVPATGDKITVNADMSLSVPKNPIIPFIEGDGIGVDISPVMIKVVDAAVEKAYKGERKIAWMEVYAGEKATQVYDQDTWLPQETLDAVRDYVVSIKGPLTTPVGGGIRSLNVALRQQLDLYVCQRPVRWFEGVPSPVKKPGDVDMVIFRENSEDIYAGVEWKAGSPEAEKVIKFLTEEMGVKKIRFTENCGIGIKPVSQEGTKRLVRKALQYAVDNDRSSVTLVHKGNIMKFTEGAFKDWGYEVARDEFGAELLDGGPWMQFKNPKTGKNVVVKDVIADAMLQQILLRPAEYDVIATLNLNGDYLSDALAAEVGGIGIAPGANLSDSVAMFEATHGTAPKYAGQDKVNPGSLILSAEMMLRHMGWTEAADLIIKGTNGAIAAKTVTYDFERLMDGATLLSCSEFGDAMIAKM
The assay can be described thus: isocitrate dehydrogenase activity, NADPH at […] nm. In kind it is biochemical.

Assay [2] addresses T2, IDH. Kind of assay: X-ray crystal structure, […] Å. Format: binding. The following applies: chain A, with NADP.
The target in another assay is T4, AceKPA (Pseudomonas aeruginosa, UniProt Q9I3W8).
T4 construct: gene aceK; His6-tagged from pET-19m, tag cleaved with TEV protease
T4 sequence (Q9I3W8 1-577): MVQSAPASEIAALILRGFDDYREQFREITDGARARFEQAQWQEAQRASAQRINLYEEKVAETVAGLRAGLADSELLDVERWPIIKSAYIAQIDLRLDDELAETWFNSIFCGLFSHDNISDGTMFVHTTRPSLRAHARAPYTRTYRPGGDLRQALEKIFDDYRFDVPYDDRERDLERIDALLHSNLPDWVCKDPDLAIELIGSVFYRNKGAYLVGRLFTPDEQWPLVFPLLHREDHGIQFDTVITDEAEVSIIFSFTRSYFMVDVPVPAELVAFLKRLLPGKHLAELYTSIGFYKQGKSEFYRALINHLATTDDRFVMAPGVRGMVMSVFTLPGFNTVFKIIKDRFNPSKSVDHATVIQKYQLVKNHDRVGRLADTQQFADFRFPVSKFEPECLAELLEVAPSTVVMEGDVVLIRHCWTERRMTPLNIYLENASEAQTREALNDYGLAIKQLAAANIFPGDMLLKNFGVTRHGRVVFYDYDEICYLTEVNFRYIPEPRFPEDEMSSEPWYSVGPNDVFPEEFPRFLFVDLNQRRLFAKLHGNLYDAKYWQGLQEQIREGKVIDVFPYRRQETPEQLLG
T4 sequence (Q9I0L5 1-418 partner): T3 sequence (Q9I0L5 1-418)
Kind of assay: AceK phosphatase coupled to ICD reactivation. In kind it is biochemical. The following applies: activator of phosphatase at 5 mM; ICD from P. aeruginosa as protein substrate; 1 mM ATP, 2 mM MgCl2, pH 7.0, 37 °C.

Setting [3] is: text b11 prints a different value (0.6 mM).

As to `O=C(O)CC[N+](=O)[O-]` [nitropropionic acid], at ICL (setting [3]), the “Ki'” value is listed as 1.0 mM. As for `O=C(O)CC(O)(CC(=O)O)C(=O)O` [citrate], the affinity at ICL corresponds to a Ki of 15.8 mM. With `O=C(O)C[C@H](O)C(=O)O` [malic acid], the Ki – broadly, the dissociation constant of the complex between target and ligand, obtained from inhibition or displacement – on ICL turned out to be 4.4 mM. `CC(=O)C(=O)O` [pyruvate]: the “isocitrate dehydrogenase activity, NADPH at 340 nm” value at IDH [1] is “pyruvate and oxaloacetate were far more potent regulators”. The compound also showed a Ki on ICL of 1.7 mM. As for `C=C(CC(=O)O)C(=O)O` [itaconic acid], on ICL (text b11 prints a different value (0.5 mM)), the “Ki'” value was found to be 0.9 mM. As for `O=C(O)CC(=O)O` [malonic acid], the “Ki'” value on ICL is recorded as 2.9 mM. Take `CC(C)(COP(=O)(O)OP(=O)(O)OC[C@H]1O[C@@H](n2cnc3c(N)ncnc32)[C@H](O)[C@@H]1OP(=O)(O)O)[C@@H](O)C(=O)NCCC(=O)NCCS` [coenzyme A]: on ICL, the Ki is 3.9 mM. The same measure, in the same setting: next, `O=C(O)CO` [glycolic acid]: 1.8 mM. For the compound `O=C(O)CCC(=O)C(=O)O` [α-ketoglutarate], the affinity on ICD, expressed as Ki, was 666 µM. For the same compound, the “X-ray crystal structure, 2.7 Å” value at IDH [2] is “(designated chain A) contained bound α-ketoglutarate and NADP”. For `O=C(O)/C=C/C(=O)O` [fumarate], the “AceK phosphatase coupled to ICD reactivation” value on AceKPA is given as “fumarate was the most potent activator of the phosphatase in AceKPA”.

`O=C(O)CC(=O)C(=O)O` [oxaloacetate] showed a Ki at ICL of 1.4 mM.

With `O=C(O)CCC(=O)O` [succinate], on ICL (setting [3]), the “Ki'” value was determined as 0.9 mM.
